Experimental data from patent US20220362396A1, “AMINO-PYRAZINECARBOXAMIDE COMPOUNDS, CONJUGATES, AND USES THEREOF” (Silverback Therapeutics, Inc., priority 2018, published 2022).

Key:
[1] = system: TGFβ/SMAD Signaling Pathway SBE reporter cell line; assay: TGFβ reporter assay, in vitro small molecule screening (luciferase); assay type: cell-based; conditions: TGFβ stimulation, luminescence
Description: TGFβ/SMAD Signaling Pathway SBE reporter cell line was obtained from BPS Bioscience. Cells were passed, expanded, and stored in liquid nitrogen as per the supplier's instructions with the exception that growth media is changed to DMEM-C with Geneticin (DMEM supplemented with 10% fetal bovine serum, 1×NEAA, 1 mM Pyruvate, 2 mM glutamine, 50 μg/mL penicillin, 50 U/mL streptomycin and 400 μg/mL of Geneticin). The assay media was MEM supplemented with 0.5% fetal bovine serum, 1×NEAA, 1 mM Pyruvate, 50 μg/mL penicillin and 50 U/mL streptomycin.
Test samples (at desired concentrations diluted in assay media) were added to a 96-well assay plate, 20 μL per well. Reporter cells were harvested from the tissue culture flasks by incubation in small quantity of PBS at 37° C. for two minutes after the media in the flask is removed and cells rinsed with PBS. Cells were counted and diluted in the assay media at approximately 0.5×10^6 cells/mL and then 80 μL/well of cells were added to the assay plate containing the 20 μL/well of test samples (or media only), and incubated for approximately 5-6 hours at 37° C. in a 5% CO2 humidified incubator. After that time, 15 μL of TGFβ diluted to 12 ng/mL in the assay media was added to the plate. Controls included TGFβ titration (from 50 to 0 ng/mL) without inhibitors, and media only (without cells, inhibitor or TGFβ). Plates were incubated at 37° C. in a 5% CO2 humidified incubator for 18 h. Luciferase substrate solution is subsequently added at 100 μL per well, incubated in the dark at room temperature for 15 min, and luminescence is measured using a luminometer. EC50 values and curve fits were obtained using Prism (GraphPad Software).

[2] = target: T1, TGFBR2 (Homo sapiens, UniProt P37173); assay: TGFBR2 RBC assay (enzyme inhibition assay, Reaction Biology Corp.); assay type: biochemical
T1 construct: purchased Reaction Biology Corp
T1 sequence (P37173 23-567): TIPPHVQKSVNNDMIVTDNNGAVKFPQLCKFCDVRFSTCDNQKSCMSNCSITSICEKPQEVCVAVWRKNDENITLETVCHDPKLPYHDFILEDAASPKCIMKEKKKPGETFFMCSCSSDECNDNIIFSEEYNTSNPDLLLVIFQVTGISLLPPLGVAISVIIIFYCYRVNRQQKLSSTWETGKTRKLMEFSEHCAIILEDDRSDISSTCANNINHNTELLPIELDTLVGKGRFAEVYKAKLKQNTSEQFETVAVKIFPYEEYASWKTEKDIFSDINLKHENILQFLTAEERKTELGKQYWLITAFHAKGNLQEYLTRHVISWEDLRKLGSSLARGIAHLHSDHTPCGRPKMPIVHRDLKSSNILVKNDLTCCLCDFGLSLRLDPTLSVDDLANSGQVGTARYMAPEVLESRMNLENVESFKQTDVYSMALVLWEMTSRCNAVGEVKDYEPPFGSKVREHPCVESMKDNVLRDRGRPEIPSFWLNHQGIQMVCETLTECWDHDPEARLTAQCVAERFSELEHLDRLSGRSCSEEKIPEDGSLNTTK
Description: Compounds of the disclosure were also assayed by Reaction Biology Corp. using the TGFBR2 RBC assay (enzyme inhibition assay). […] NT refers to not tested.

EC50 [1] [nM]	IC50 [2] [nM]	SMILES
100 to 1000	< 50	Nc1ncc(-c2ccc(CCNC(=O)OCc3ccccc3)c(F)c2)nc1C(=O)Nc1cnccc1N1CCOCC1 [Compound 46]
50 to 100	50 to 100	Nc1ncc(-c2ccc3c(c2)CNCC3)nc1C(=O)Nc1cnccc1N1CCOCC1 [Compound 67]
50 to 100	100 to 1000	Nc1ncc(-c2ccc(CCNC(=O)OCc3ccccc3)cc2)nc1C(=O)Nc1cnccc1N1CCSCC1 [Compound 36]
100 to 1000	100 to 1000	N#Cc1ccc(-c2ccncc2NC(=O)c2nc(-c3ccc(CCNC(=O)OCc4ccccc4)cc3)cnc2N)cc1 [Compound 15]
> 1000	50 to 100	Nc1ncc(-c2cccc3c2CCC3)nc1C(=O)Nc1cnccc1N1CCOCC1 [Compound 179]
100 to 1000	< 50	Nc1ncc(-c2ccc(C[C@H](N)CO)cc2)nc1C(=O)Nc1cnccc1N1CCOCC1 [Compound 210]
100 to 1000	< 50	Nc1ncc(-c2ccc3c(c2)C(O)CCC3)nc1C(=O)Nc1cnccc1N1CCOCC1 (centres unmarked) [Compound 251]
> 1000	100 to 1000	COC(=O)c1cc(-c2cnc(N)c(C(=O)Nc3cnccc3N3CCOCC3)n2)ccc1OCCCNC(=O)OC(C)(C)C [Compound 241]
> 1000	< 50	CC(CN)Oc1ccc(-c2cnc(N)c(C(=O)Nc3cnccc3N3CCCCOCC3)n2)cc1 (centres unmarked) [Compound 257]
100 to 1000	< 50	COC(=O)[C@H](N)Cc1ccc(-c2cnc(N)c(C(=O)Nc3cnccc3N3CCOCC3)n2)cc1 [Compound 195]
> 1000	< 50	Nc1ncc(-c2ccc(CCNC(=O)OCc3ccccc3)cc2)nc1C(=O)Nc1cnccc1-c1ccccn1 [Compound 133]
50 to 100	< 50	CC(C)[C@H](N)C(=O)N1CCC[C@H]1C(=O)NCc1ccc(-c2cnc(N)c(C(=O)Nc3cnccc3N3CCOCC3)n2)cc1 [Compound 112]
50 to 100	100 to 1000	Nc1ncc(-c2ccc(S(=O)(=O)N3CCNCC3)cc2)nc1C(=O)Nc1cnccc1N1CCOCC1 [Compound 62]
50 to 100	< 50	Nc1ncc(-c2ccc(N3CC[C@H](N)C3)cc2)nc1C(=O)Nc1cnccc1N1CCOCC1 [Compound 277]
100 to 1000	< 50	CC(C)(C)OC(=O)N[C@@H]1CCN(c2ccc(-c3cnc(N)c(C(=O)Nc4cnccc4N4CCOCC4)n3)cc2)C1 [Compound 274]
100 to 1000	< 50	COc1cccc(-c2cnc(N)c(C(=O)Nc3cnccc3N3CCOCC3)n2)c1 [Compound 155]
> 1000	50 to 100	COC(=O)c1cc(-c2cnc(N)c(C(=O)Nc3cnccc3N3CCOCC3)n2)ccc1OCCCN1C(=O)c2ccccc2C1=O [Compound 240]
> 1000	< 50	CC(COc1cccc(-c2cnc(N)c(C(=O)Nc3cnccc3N3CCOCC3)n2)c1)NC(=O)OC(C)(C)C (centres unmarked) [Compound 189]
50 to 100	100 to 1000	Nc1ncc(-c2ccc(CCNC(=O)OCc3ccccc3)cc2)nc1C(=O)Nc1cnccc1-c1ccc(=O)[nH]c1 [Compound 22]
100 to 1000	100 to 1000	NCC1CN(c2ccncc2NC(=O)c2nc(-c3ccc(CCNC(=O)OCc4ccccc4)cc3)cnc2N)CCO1 (centres unmarked) [Compound 41]
100 to 1000	< 50	NCCc1ccc(-c2cnc(N)c(C(=O)Nc3cnccc3-c3cccnc3)n2)cc1 [Compound 127]
100 to 1000	< 50	CC(C)(C)OC(=O)NC1CCN(c2ccc(-c3cnc(N)c(C(=O)Nc4cnccc4N4CCOCC4)n3)cc2)CC1 [Compound 280]
100 to 1000	50 to 100	CC(C)(C)OC(=O)NC1CNc2ccc(-c3cnc(N)c(C(=O)Nc4cnccc4N4CCOCC4)n3)cc2C1 (centres unmarked) [Compound 238]
100 to 1000	< 50	Nc1ncc(-c2cccc(CCCNC(=O)OCc3ccccc3)c2)nc1C(=O)Nc1cnccc1N1CCOCC1 [Compound 178]
100 to 1000	< 50	Nc1ncc(-c2ccc(CCNC(=O)OCc3ccccc3)cc2)nc1C(=O)Nc1cnccc1-c1cccnc1 [Compound 128]
100 to 1000	> 1000	COc1cc(-c2ccncc2NC(=O)c2nc(-c3ccc(CCNC(=O)OCc4ccccc4)cc3)cnc2N)ccn1 [Compound 21]
> 1000	< 50	NCCc1ccc(-c2cnc(N)c(C(=O)Nc3cnccc3-n3ccnc3)n2)cc1 [Compound 136]
> 1000	< 50	Nc1ncc(-c2ccc(O[C@H]3C[C@@H](N)C3)cc2)nc1C(=O)Nc1cnccc1N1CCOCC1 [Compound 224]

Further lines, the molecule ahead of its results:

SMILES	EC50 [1] [nM]	IC50 [2] [nM]
CC(C)c1nccn1-c1ccncc1NC(=O)c1nc(-c2ccc(CCN)cc2)cnc1N [Compound 142]	100 to 1000	< 50
Nc1ncc(-c2ccc3c(c2)CCNC3CN2C(=O)c3ccccc3C2=O)nc1C(=O)Nc1cnccc1N1CCOCC1 (centres unmarked) [Compound 232]	> 1000	< 50
Nc1ncc(-c2ccc(CCNC(=O)OCc3ccccc3)cc2)nc1C(=O)Nc1cnccc1N1CC2(COC2)C1 [Compound 95]	> 1000	> 1000
NCCCc1ccc(-c2cnc(N)c(C(=O)Nc3cnccc3N3CCOCC3)c2)cc1 [Compound 69]	> 1000	> 1000
COC1CCN(c2ccncc2NC(=O)c2nc(-c3ccc(CCNC(=O)OCc4ccccc4)cc3)cnc2N)CC1 [Compound 42]	100 to 1000	50 to 100
Nc1ncc(-c2ccc(CCNC(=O)OCc3ccccc3)cc2)nc1C(=O)Nc1cnccc1CN1CCCC1 [Compound 72]	100 to 1000	50 to 100
COc1cccc(OC)c1-c1cnc(N)c(C(=O)Nc2cnccc2N2CCOCC2)n1 [Compound 172]	> 1000	> 1000
Nc1ncc(-c2ccc(C(=O)NCCNC(=O)OCc3ccccc3)cc2)nc1C(=O)Nc1cnccc1N1CCOCC1 [Compound 76]	100 to 1000	< 50
NCC1COCCN1c1ccncc1NC(=O)c1nc(-c2ccc(CCNC(=O)OCc3ccccc3)cc2)cnc1N (centres unmarked) [Compound 37]	> 1000	> 1000
Nc1ncc(-c2ccc(CCNC(=O)OCc3ccccc3)cc2)nc1C(=O)Nc1cnccc1N1CCOCC1 [Compound 1.1, Benzyl (4-(5-amino-6-((4-morpholinopyridin-3-yl)carbamoyl)pyrazin-2-yl)phenethyl)carbamate]	100 to 1000	< 50
COC(=O)[C@@H](Cc1ccc(-c2cnc(N)c(C(=O)Nc3cnccc3N3CCOCC3)n2)cc1)NC(=O)OC(C)(C)C [Compound 192]	100 to 1000	< 50
Nc1ncc(-c2ccc(N3CCOCC3)cc2)nc1C(=O)Nc1cnccc1N1CCOCC1 [Compound 258]	< 50	< 50
NCCCCc1ccc(-c2cnc(N)c(C(=O)Nc3cnccc3N3CCOCC3)n2)cc1 [Compound 73]	50 to 100	< 50
Nc1ncc(-c2ccc(CCNC(=O)OCc3ccccc3)cc2)nc1C(=O)Nc1cnccc1N1CCOCCC1=O [Compound 47]	> 1000	> 1000
CC(C)(C)OC(=O)NCC1CCc2cc(-c3cnc(N)c(C(=O)Nc4cnccc4N4CCOCC4)n3)ccc2N1 (centres unmarked) [Compound 243]	100 to 1000	100 to 1000
COC(=O)[C@@H](N)Cc1ccc(-c2cnc(N)c(C(=O)Nc3cnccc3N3CCOCC3)n2)cc1 [Compound 203]	> 1000	< 50
Nc1ncc(-c2ccc(OCC[C@@H](NC(=O)OCc3ccccc3)C(=O)O)cc2)nc1C(=O)Nc1cnccc1N1CCOCC1 [Compound 276]	> 1000	< 50
NCC1CCc2cc(-c3cnc(N)c(C(=O)Nc4cnccc4N4CCOCC4)n3)ccc2O1 (centres unmarked) [Compound 237]	50 to 100	< 50
NCCc1ccc(-c2cnc(N)c(C(=O)Nc3c(N4CCOCC4)ccnc3N)n2)cc1 [Compound 131]	> 1000	> 1000
CC(C)(C)OC(=O)N1CCc2cc(-c3cnc(N)c(C(=O)Nc4cnccc4N4CCOCC4)n3)ccc2C1 [Compound 78]	< 50	< 50
Nc1ncc(-c2ccc(OCC[C@@H](N)C(=O)O)cc2)nc1C(=O)Nc1cnccc1N1CCOCC1 [Compound 275]	> 1000	50 to 100
Cc1nccn1-c1ccncc1NC(=O)c1nc(-c2ccc(CCN)cc2)cnc1N [Compound 4.1, 3-Amino-6-(4-(2-aminoethyl)phenyl)-N-(4-(2-methyl-1H-imidazol-1-yl)pyridin-3-yl)pyrazine-2-carboxamide]	100 to 1000	< 50
Nc1ncc(-c2ccc(O[C@H]3C[C@H](N)C3)cc2)nc1C(=O)Nc1cnccc1N1CCOCC1 [Compound 222]	100 to 1000	< 50
COC(=O)[C@H](Cc1ccc(-c2cnc(N)c(C(=O)Nc3cnccc3N3CCOCC3)n2)cc1)NC(=O)OC(C)(C)C [Compound 200]	> 1000	< 50
